The record followed here is article PMC4618480.

Data set [1] can be described thus: RCM, 10 mol% Ru catalyst 1 (Grubbs I), quenched with ethyl vinyl ether. The note with it: DCE, 2.0 mM, 40.0 °C, 4.0 h.
A short description of data set [2]: RCM, 10 mol% Ru catalyst 2 (Grubbs II), quenched with ethyl vinyl ether. Particulars: DCE, 2.0 mM, 40.0 °C, 4.0 h.
Data set [3] can be described thus: RCM, 10 mol% Ru catalyst 3 (Hoveyda-Grubbs II), quenched with ethyl vinyl ether. The note with it: DCE, 2.0 mM, 40.0 °C, 4.0 h.
Data set [4] can be described thus: RCM, 10 mol% Ru catalyst 4 (nitro-Hoveyda/Grela), quenched with ethyl vinyl ether. The note with it: DCE, 2.0 mM, 40.0 °C, 4.0 h.
The nature of data set [5]: RCM, 10 mol% Ru catalyst 5 (o-tolyl NHC Hoveyda type), quenched with ethyl vinyl ether. Particulars: DCE, 2.0 mM, 40.0 °C, 4.0 h.
A short description of data set [6]: RCM, 10 mol% Z-selective cyclometalated Ru catalyst 6 (Mes), quenched with ethyl vinyl ether. The note with it: DCE, 2.0 mM, 40.0 °C, 4.0 h.
Data set [7] in a line: RCM, 10 mol% Z-selective cyclometalated Ru catalyst 7 (Dipp), quenched with ethyl vinyl ether. The note with it: DCE, 2.0 mM, 40.0 °C, 4.0 h.
A short description of data set [8]: on-resin RCM stapling (Rink amide MBHA), 16 mol% Ru catalyst 1 (Grubbs I), then TFA/TIS/H2O cleavage. Particulars: the molecule shown is the open-chain precursor, DCE, 40.0 °C.
Data set [9] in a line: on-resin RCM stapling (Rink amide MBHA), 16 mol% Ru catalyst 2 (Grubbs II), then TFA/TIS/H2O cleavage. Particulars: the molecule shown is the open-chain precursor, DCE, 40.0 °C.
A short description of data set [10]: on-resin RCM stapling (Rink amide MBHA), 16 mol% Z-selective Ru catalyst 6 (Mes), then TFA/TIS/H2O cleavage. Particulars: the molecule shown is the open-chain precursor, DCE, 40.0 °C.
The nature of data set [11]: on-resin RCM stapling (Rink amide MBHA), 16 mol% Z-selective Ru catalyst 7 (Dipp), then TFA/TIS/H2O cleavage. The note with it: the molecule shown is the open-chain precursor, DCE, 40.0 °C.
Data set [12] is described as follows: on-resin RCM stapling (Rink amide MBHA), 16 mol% Ru catalyst 3 (Hoveyda-Grubbs II), then TFA/TIS/H2O cleavage. The note with it: the molecule shown is the open-chain precursor, 21-membered ring, DCE, 40.0 °C.
A short description of data set [13]: on-resin RCM stapling (Rink amide MBHA), 16 mol% Ru catalyst 4 (nitro-Hoveyda/Grela), then TFA/TIS/H2O cleavage. The note with it: the molecule shown is the open-chain precursor, DCE, 40.0 °C.
Data set [14] can be described thus: on-resin RCM stapling (Rink amide MBHA), 16 mol% Ru catalyst 5 (o-tolyl NHC Hoveyda type), then TFA/TIS/H2O cleavage. Particulars: the molecule shown is the open-chain precursor, 33-membered ring, DCE, 40.0 °C.
[15] abbreviates: from C=CCCOc1ccc(C[C@H](NC(=O)OC(C)(C)C)C(=O)N[C@@H](CC(C)C)C(=O)N[C@@H](CC=C)C(=O)OC)cc1, 18-membered ring.
[16] abbreviates: from C=CC[C@H](NC(=O)OC(C)(C)C)C(=O)N[C@@H](CC(C)C)C(=O)N[C@@H](CC(C)C)C(=O)N[C@@H](CC=C)C(=O)OCc1ccccc1, 14-membered ring.
Setting [17] is: from C=CCCOc1ccc(C[C@H](NC(=O)OC(C)(C)C)C(=O)N[C@@H](CC(C)C)C(=O)N[C@@H](CCC=C)C(=O)OC)cc1, 19-membered ring.
Setting [18] is: from C=CC[C@H](NC(=O)CNC(=O)[C@@H]1CCCN1C(=O)[C@H](CC=C)NC(=O)OC(C)(C)C)C(=O)OC, 14-membered ring.
[19] abbreviates: from C=CCOc1ccc(C[C@H](NC(=O)OC(C)(C)C)C(=O)N[C@@H](CC(C)C)C(=O)N[C@@H](CC=C)C(=O)OC)cc1, 17-membered ring.
[20] abbreviates: from C=CCOC[C@H](NC(=O)OC(C)(C)C)C(=O)N[C@@H](CC(C)C)C(=O)N[C@@H](CC(C)C)C(=O)N[C@@H](COCC=C)C(=O)OC, 18-membered ring.
The mark [21] stands for this setting: from C=CCSC[C@H](NC(=O)OC(C)(C)C)C(=O)N[C@@H](CC(C)C)C(=O)N[C@@H](CC(C)C)C(=O)N[C@@H](CSCC=C)C(=O)OC, 18-membered ring.
Where [22] appears, read: from C=CC[C@H](NC(=O)OC(C)(C)C)C(=O)N[C@@H](Cc1cn(S(=O)(=O)c2ccc(C)cc2)cn1)C(=O)NCC(=O)N[C@@H](CC=C)C(=O)OC, 14-membered ring.

Consider `COC(=O)[C@@H]1CC=CCCOc2ccc(cc2)C[C@H](NC(=O)OC(C)(C)C)C(=O)N[C@@H](CC(C)C)C(=O)N1` [Boc-Tyr(O-homoallyl)-Leu-allylGly-OMe], for which the ring closure, isolated yield in data set [1] (setting [15]) turned out to be 54%; in data set [2] (setting [15]), 61%; in data set [3] (setting [15]), 55%; in [4] (setting [15]), 60%; in [5] (setting [15]), 24%; in [6] (setting [15]) it was 21%. This molecule gave a ring closure, isolated yield in [7] (setting [15]) of 17%.
`C=CCCC[C@](C)(NC(=O)[C@H](CC(C)C)NC(=O)[C@H](CC(C)C)NC(=O)[C@H](CC(=O)O)NC(=O)[C@](C)(CCCC=C)NC(=O)[C@H](Cc1ccccc1)NC(=O)[C@@H](NC(=O)[C@@H](NC(=O)OCC1c2ccccc2-c2ccccc21)[C@@H](C)CC)[C@@H](C)O)C(=O)N[C@@H](Cc1ccc(O)cc1)C(=O)N[C@@H](Cc1ccc(O)cc1)C(=O)NCC(=O)N1CCC[C@H]1C(N)=O` [Fmoc-Ile-Thr-Phe-S5-Asp-Leu-Leu-S5-Tyr-Tyr-Gly-Pro-NH-resin]: the ring closure, conversion by HPLC in data set [8] (21-membered ring) worked out at 90%.
Take `CC(C)C[C@@H]1NC(=O)[C@@H](NC(=O)OC(C)(C)C)CC=CC[C@@H](C(=O)OCc2ccccc2)NC(=O)[C@H](CC(C)C)NC1=O` [Boc-allylGly-Leu-Leu-allylGly-OBn]: the ring closure, isolated yield in [1] (setting [16]) turned out to be 70%; in [2] (setting [16]) it was 74%; in [3] (setting [16]), 61%; in data set [4] (setting [16]) it was 64%; in data set [5] (setting [16]) it was 39%; in data set [6] (setting [16]) it was 32%. The ring closure, isolated yield in data set [7] (setting [16]) is 30%.
Turning to `C=CCCCCCC[C@@](C)(NC(=O)[C@H](Cc1ccccc1)NC(=O)[C@@H](NC(=O)[C@H](CCC(N)=O)NC(=O)[C@H](CCC(N)=O)NC(=O)[C@H](CO)NC(=O)[C@H](CCC(N)=O)NC(=O)OCC1c2ccccc2-c2ccccc21)[C@@H](C)O)C(=O)N[C@@H](CC(N)=O)C(=O)N[C@@H](CC(C)C)C(=O)N[C@@H](Cc1c[nH]c2ccccc12)C(=O)N[C@@H](CCCNC(=N)N)C(=O)N[C@@H](CC(C)C)C(=O)N[C@@H](CC(C)C)C(=O)N[C@@](C)(CCCC=C)C(=O)N[C@@H](CCC(N)=O)C(=O)N[C@@H](CC(N)=O)C(N)=O`, the ring closure, conversion by HPLC in data set [8] (33-membered ring) came to 92%.
The molecule `C=CCCC[C@](C)(NC(=O)[C@H](Cc1ccccc1)NC(=O)[C@@H](NC(=O)[C@H](Cc1c[nH]cn1)NC(=O)[C@](C)(CCCC=C)NC(=O)[C@H](CCCNC(=N)N)NC(=O)[C@H](CCC(=O)O)NC(=O)[C@H](CC(C)C)NC(=O)[C@H](CCC(=O)O)NC(=O)[C@H](C)NC(=O)OCC1c2ccccc2-c2ccccc21)[C@@H](C)O)C(=O)N[C@@H](CC(C)C)C(=O)N[C@@H](Cc1c[nH]cn1)C(=O)N[C@@H](CCC(N)=O)C(=O)N[C@@H](CCCNC(=N)N)C(N)=O` had a ring closure, conversion by HPLC in [8] (21-membered ring) of 93%.
As for “Fmoc-Ala-Glu-Leu-Glu-Arg-S5-His-Thr-Phe-S5-Leu-His-Gln-Arg-NH-resin”, the ring closure, conversion by HPLC was determined as 85% in data set [9] (21-membered ring); 80% in [10] (21-membered ring); 70% in data set [11] (21-membered ring); 88% in [12]; 92% in data set [13] (21-membered ring).
As for `COC(=O)[C@@H]1CCC=CCCOc2ccc(cc2)C[C@H](NC(=O)OC(C)(C)C)C(=O)N[C@@H](CC(C)C)C(=O)N1` [Boc-Tyr(O-homoallyl)-Leu-homoallylGly-OMe], the ring closure, isolated yield in data set [1] (setting [17]) worked out at 68%; in data set [2] (setting [17]) it was 77%; in [3] (setting [17]), 70%; in data set [4] (setting [17]), 66%; in [5] (setting [17]), 44%; in [6] (setting [17]), 26%. In data set [7] (setting [17]), this molecule registered a ring closure, isolated yield of 24%.
`C=CCCCCCC[C@@](C)(NC(=O)[C@H](CC(N)=O)NC(=O)[C@@H](NC(=O)OCC1c2ccccc2-c2ccccc21)C(C)C)C(=O)N[C@@H](CCCCN)C(=O)N[C@@H](CCCCN)C(=O)N[C@H](C(=O)N[C@@H](CC(C)C)C(=O)NCC(=O)N[C@@H](CCCCN)C(=O)N[C@@](C)(CCCC=C)C(=O)N[C@H](C(=O)N[C@@H](CCCCN)C(=O)N[C@H](C(=O)N[C@H](C(=O)N[C@@H](CCCCN)C(N)=O)C(C)C)C(C)C)[C@@H](C)CC)[C@@H](C)CC` gave a ring closure, conversion by HPLC in data set [8] (33-membered ring) of 88%.
Turning to `COC(=O)[C@@H]1CC=CC[C@H](NC(=O)OC(C)(C)C)C(=O)N2CCC[C@H]2C(=O)NCC(=O)N1` [Boc-allylGly-Pro-Gly-allylGly-OMe], the ring closure, isolated yield worked out at 37% in data set [1] (setting [18]); 48% in data set [2] (setting [18]); 41% in data set [3] (setting [18]); 36% in data set [4] (setting [18]); 20% in data set [5] (setting [18]); 17% in [6] (setting [18]). The ring closure, isolated yield in data set [7] (setting [18]) came out at 18%.
As for `COC(=O)[C@@H]1CC=CCOc2ccc(cc2)C[C@H](NC(=O)OC(C)(C)C)C(=O)N[C@@H](CC(C)C)C(=O)N1` [Boc-Tyr(O-allyl)-Leu-allylGly-OMe], the ring closure, isolated yield in [1] (setting [19]) was 58%; in data set [2] (setting [19]), 71%; in [3] (setting [19]), 63%; in data set [4] (setting [19]), 66%; in [5] (setting [19]), 45%; in [6] (setting [19]) it was 47%. The ring closure, isolated yield in data set [7] (setting [19]) worked out at 41%.
Consider `COC(=O)[C@@H]1COCC=CCOC[C@H](NC(=O)OC(C)(C)C)C(=O)N[C@@H](CC(C)C)C(=O)N[C@@H](CC(C)C)C(=O)N1` [Boc-Ser(O-allyl)-Leu-Leu-Ser(O-allyl)-OMe], for which the ring closure, isolated yield in [1] (setting [20]) stood at 73%; in data set [2] (setting [20]), 76%; in data set [4] (setting [20]) it was 74%; in [5] (setting [20]), 44%; in [6] (setting [20]), 36%; in data set [7] (setting [20]), 34%.
“Fmoc-Gln-Ser-Gln-Gln-Thr-Phe-R8-Asn-Leu-Trp-Arg-Leu-Leu-S5-Gln-Asn-NH-resin”: the ring closure, conversion by HPLC in data set [9] (33-membered ring) was determined as 90%; in data set [10] (33-membered ring), 75%; in data set [11] (33-membered ring), 70%; in data set [13] (33-membered ring) it was 85%; in [14], 80%.
`COC(=O)[C@@H]1CSCC=CCSC[C@H](NC(=O)OC(C)(C)C)C(=O)N[C@@H](CC(C)C)C(=O)N[C@@H](CC(C)C)C(=O)N1` [Boc-Cys(S-allyl)-Leu-Leu-Cys(S-allyl)-OMe]: the ring closure, isolated yield in data set [1] (setting [21]) was 77%; in [2] (setting [21]) it was 81%; in data set [3] (setting [21]) it was 79%; in data set [4] (setting [21]) it was 83%; in [5] (setting [21]), 42%; in data set [6] (setting [21]), 40%. The ring closure, isolated yield in [7] (setting [21]) was 33%.
Take `COC(=O)[C@@H]1CC=CC[C@H](NC(=O)OC(C)(C)C)C(=O)N[C@@H](Cc2cn(S(=O)(=O)c3ccc(C)cc3)cn2)C(=O)NCC(=O)N1` [Boc-allylGly-His(Tos)-Gly-allylGly-OMe]: the ring closure, isolated yield in data set [1] (setting [22]) was 14%; in data set [2] (setting [22]), 18%; in data set [3] (setting [22]), < 10%; in data set [4] (setting [22]) it was 12%; in data set [5] (setting [22]), < 5%.
